Among the data in PubChem BioAssay (NCI) are GI50 and TGI values, retold here.

Test systems include BT-549 breast; HS 578T breast; IGROV1 ovarian; SF-268 CNS; SF-295 CNS; SK-MEL-28 melanoma; SK-OV-3 ovarian; SR leukemia; SW-620 colon; UACC-62 melanoma.
Common to all, as to test: growth of human tumour cells (NCI), 48 h

Each structure is given as a SMILES string.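 Where inhibition never reached the appropriate level, the endpoint shown equals the highest concentration tested. Otherwise, values were interpolated linearly from a five-concentration, 48-hour dose response in 96-well plates. Here, GI50 denotes the concentration required for 50% inhibition of growth. TGI marks complete inhibition of growth.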

`COc1ccc(/C=C2\c3cc(OC)c(OC)c(OC)c3CC[C@@H]2O)cc1F`: the GI50 in the assay with BT-549 breast is 0.443 µM; with HS 578T breast it was 0.299 µM; with IGROV1 ovarian it was 0.812 µM; in the assay on SF-268 CNS it was 0.748 µM; with SF-295 CNS it was 0.222 µM; in the assay on SK-MEL-28 melanoma, 7.54 µM. For the same compound, the GI50 in the assay with SK-OV-3 ovarian was 0.306 µM; in the assay on SR leukemia, 0.0899 µM; in the assay on SW-620 colon it was 0.246 µM; with UACC-62 melanoma, 0.283 µM. Moreover, the TGI is 42.7 µM in the assay on BT-549 breast; more than 100 µM in the assay with HS 578T breast; more than 100 µM in the assay with IGROV1 ovarian; more than 100 µM in the assay with SF-268 CNS; more than 100 µM in the assay with SF-295 CNS; more than 100 µM in the assay with SK-MEL-28 melanoma. Further, the TGI in the assay with SK-OV-3 ovarian was 61.1 µM; in the assay on SR leukemia it was more than 100 µM; with SW-620 colon, more than 100 µM; in the assay with UACC-62 melanoma, more than 100 µM.
For the compound `C=C1C(=O)O[C@H]2[C@H]1CC/C(COC(=O)NCCCCCCCCNC(=O)OC/C1=C/CC[C@@]3(C)O[C@H]3[C@H]3OC(=O)C(=C)[C@@H]3CC1)=C\CC[C@@]1(C)O[C@@H]21`, the GI50 in the assay with BT-549 breast is 0.257 µM; with HS 578T breast, 1.17 µM; with IGROV1 ovarian, 1.01 µM; in the assay on SF-268 CNS, 0.999 µM; in the assay with SF-295 CNS, 1.95 µM; in the assay with SK-MEL-28 melanoma, 0.206 µM. The GI50 in the assay on SK-OV-3 ovarian is 3.64 µM; in the assay with SR leukemia, 0.317 µM; in the assay with SW-620 colon, 0.239 µM; with UACC-62 melanoma, 0.197 µM. Besides, the TGI came out at 0.748 µM in the assay with BT-549 breast; 8.23 µM in the assay with HS 578T breast; 2.61 µM with IGROV1 ovarian; 2.69 µM with SF-268 CNS; 4.82 µM in the assay with SF-295 CNS; 0.511 µM in the assay on SK-MEL-28 melanoma. The TGI is 12.3 µM in the assay on SK-OV-3 ovarian, 1.51 µM in the assay on SR leukemia, 0.686 µM in the assay with SW-620 colon and 0.488 µM in the assay with UACC-62 melanoma.
Take `CSc1ccc(C(=O)/C=C/c2ccccc2Cl)cc1`: the GI50 is 15.4 µM in the assay with BT-549 breast; 21.9 µM in the assay on HS 578T breast; 4.56 µM in the assay on IGROV1 ovarian; 22.4 µM in the assay with SF-268 CNS; 16.1 µM with SF-295 CNS; 23.4 µM in the assay with SK-MEL-28 melanoma. The GI50 with SK-OV-3 ovarian is 32.3 µM; with SR leukemia, 2.23 µM; in the assay with SW-620 colon it was 4.95 µM; in the assay with UACC-62 melanoma it was 15.7 µM. Further, the TGI with BT-549 breast came to 32.9 µM; in the assay on HS 578T breast it was 55.6 µM; in the assay on IGROV1 ovarian it was 17 µM; in the assay on SF-268 CNS it was 53.3 µM; with SF-295 CNS it was 33.1 µM; in the assay with SK-MEL-28 melanoma, 52.9 µM. Also, the TGI was more than 100 µM in the assay with SK-OV-3 ovarian, 22.4 µM in the assay with SR leukemia, 28.7 µM in the assay on SW-620 colon and 33.5 µM with UACC-62 melanoma.
